# Test results: US5006515A, “Pharmaceuticals, phosphorus-containing 2-isoxazolines and isoxazoles contained therein” (Hoechst Aktiengesellschaft, priority 1987, dated 1991)
# Like-named read-outs stand apart in the source and are kept apart here.
# Legend:
# peritoneal macrophages [1] = test: Activation of peritoneal macrophages: chemiluminescence (oxidative metabolism); conditions: single i.p. dose of 40 mg/kg; maximum activation by Example 34 = 100%; 40 mg/kg
# peritoneal macrophages [2] = test: Stimulation of the release of lysosomal enzymes from peritoneal macrophages (exocytosis); conditions: single i.p. dose of 40 mg/kg; maximum activation by Example 34 = 100%; 40 mg/kg
# active Arthus reaction = test: Active Arthus reaction in the rat; assay type: in vivo, Sprague-Dawley rats; conditions: for Active Arthus reaction % change / change in vivo at 50 mg/kg: oral dose 50 mg/kg
# Procedure: The experimental animals used were female and male Sprague-Dawley rats with a body weight between 80 and 100 g which received subcutaneous injections into the tail-head of 0.5 ml of an emulsion of pertussis vaccine and ovalbumin in liquid paraffin. After two weeks, the rats were divided into groups each of 8 animals. 24 hours and 1 hour before induction of the Arthus reaction by injection of 0.1 ml of a 0.4% strength ovalbumin solution into the right hind paw, the particular test substance or the pure vehicle (positive control) was administered orally, sodium chloride solution was injected into the left paw. One group of unsensitized animals (negative control group) was likewise treated with ovalbumin in order to be able to rule out nonspecific reactions to the protein. The parameter used for measuring the action of the product was the percentage change in the increase in paw volume compared with that in the control group which was sensitized but untreated (positive control) 4 hours after ovalbumin challenge, when the swelling had reached its maximum.
# leucine aminopeptidase = test: Inhibition of leucine aminopeptidase; assay type: biochemical; conditions: substrate L-leucine 4-nitroanilide
# Procedure: (§1) The activity of the enzyme aminopeptidase B was determined photometrically using the substrate L-lysine 2-naphthylamide at room temperature. […] In the same way, the inhibition of leucine aminopeptidase was investigated using L-leucine 4-nitroanilide as enzyme substrate. The IC50 values are compiled in Table 6.
# [3] = test system: DTH reaction to sheep erythrocytes; test: Delayed-type hypersensitivity (DTH) reaction to sheep erythrocytes; assay type: in vivo, female NMRI mice; conditions: single i.p. dose of 40 mg/kg, maximal stimulation by Example 34 = 100%
# Procedure: Groups each comprising 5 female NMRI mice with a body weight of 18 to 20 g were formed, and each animal was given 10^6 or 10^9 sheep red blood cells intravenously. Sheep erythrocytes are regarded in immunology as a standard antigen with which it is possible to check cellular and humoral immunoreactivity, especially the functioning of the T-cell-dependent component of the immune system, the so-called T-helper cells. The test substances were administered, in intraperitoneal doses of 5 to 100 mg/kg in physiological saline, at the same time as the antigen. After 5 days, each animal was given an injection of 2×10^8 sheep erythrocytes into the footpad. 24 hours later, the swelling of the foot was measured. The foot swelling is induced by a skin reaction of the delayed type (DTH reaction) and, as is known to those skilled in the art, is a measure of the cellular immune response (J. Immunol. 101 (1968), 830-845). The test results obtained with the product of Example 34, by way of example, are compiled in Table 7 and illustrate that the compounds of the formula I--administered prophylactically--are able to increase the cellular immune response after immunization with the antigen by stimulation of the T-cell system, with the stimulant action reaching its optimum in this experiment at a dose of 25 mg/kg.
# Acute toxicity = test: Acute toxicity; design: species or system mice; conditions: mouse, in vivo, single dose, mortality within 7 days
# Procedure: The LD50 values were determined by the standard method via the mortality occurring within 7 days in NMRI (Naval Medical Research Institute) mice (6 animals per dose) after a single intraperitoneal (i.p.) or intravenous (i.v.) dose.
# aminopeptidase B = aminopeptidase B (Homo sapiens, UniProt Q9H4A4); test: Inhibition of aminopeptidase B; assay type: biochemical
# Procedure: as §1
# cGvH reaction = test: Chronic graft-versus-host (cGvH) reaction in the mouse; assay type: in vivo, female mice of (DBA/2×C57Bl/6)F1 generation; conditions: 6 weeks
# Text: Graft-versus-host disease, which derives from an immune reaction originating from the transplant and directed against the host tissue, is characterized, in the acute form which almost always has a fatal outcome, by enlargement of the spleen, swelling of the liver, hypertrophy of the lymph nodes, hemolytic anemia, lowered immunoglobulin and complement levels and diminished immunoreactivity. The chronic form of the disease, which has a somewhat milder course, leads to lymphadenopathy, immune complex glomerulonephritis and excessive formation of non-organ-specific autoantibodies. A syndrome with similar features is systemic lupus erythematosus (SLE) which is likewise one of the autoimmune diseases.
# The investigation of the compounds used according to the invention for the progress of the cGvH reaction induced in female mice of (DBA/2×C57Bl/6)F1 generation by two injections of spleen and thymus cells mixed together are carried out in the experimental system described by S. Popovic and R. R. Bartlett (Agents and Actions 21 (1987), 284-286), with 5×10^7 DBA/2 cells, likewise obtained from female donor animals, being administered intravenously in 0.2 ml of culture medium each time at a time interval of 7 days. For a reliable assessment of the outbreak and course of the disease, a group of healthy animals was included as negative control in all experiments. The 6-week oral treatment of the animals with the disease started on day 21 after the first donor cell injection, with the test substances or the pure vehicle (positive control) being administered once a day. The vehicle used was an aqueous CMC (carboxymethylcellulose sodium salt) solution containing 100 mg of CMC per 1. The volume administered was 10 ml per kg body weight. The individual experimental groups each comprised 10 animals.
# The action of the products was assessed on the basis of the inhibition of proteinuria and the cGvH index. As a consequence of the destruction of nephrons by deposition of immune complexes on the basement membranes of the glomeruli, the animals with the disease developed pronounced proteinuria, which correlates with the extent of glomerulonephritis and can easily be quantified via the increase in the amount of protein excreted with the urine. The second parameter measured, the cGvH index, relates to the great enlargement of the spleen (splenomegaly) caused by the cGvH reaction. It is defined as the quotient of the product of the spleen and body weights of the animals with the disease and of the product of the corresponding weights of healthy untreated animals on the negative control group, and is a reliable measure of the intensity of the disease (the greater this index, the more severe the disease).
# [4] = Rattus norvegicus, po, 4 h, 4 h after ovalbumin challenge
# [5] = Rattus norvegicus, po, 4 h, read-out: Active Arthus reaction % change
# Sequence of aminopeptidase B (Q9H4A4 whole entry, species assumed): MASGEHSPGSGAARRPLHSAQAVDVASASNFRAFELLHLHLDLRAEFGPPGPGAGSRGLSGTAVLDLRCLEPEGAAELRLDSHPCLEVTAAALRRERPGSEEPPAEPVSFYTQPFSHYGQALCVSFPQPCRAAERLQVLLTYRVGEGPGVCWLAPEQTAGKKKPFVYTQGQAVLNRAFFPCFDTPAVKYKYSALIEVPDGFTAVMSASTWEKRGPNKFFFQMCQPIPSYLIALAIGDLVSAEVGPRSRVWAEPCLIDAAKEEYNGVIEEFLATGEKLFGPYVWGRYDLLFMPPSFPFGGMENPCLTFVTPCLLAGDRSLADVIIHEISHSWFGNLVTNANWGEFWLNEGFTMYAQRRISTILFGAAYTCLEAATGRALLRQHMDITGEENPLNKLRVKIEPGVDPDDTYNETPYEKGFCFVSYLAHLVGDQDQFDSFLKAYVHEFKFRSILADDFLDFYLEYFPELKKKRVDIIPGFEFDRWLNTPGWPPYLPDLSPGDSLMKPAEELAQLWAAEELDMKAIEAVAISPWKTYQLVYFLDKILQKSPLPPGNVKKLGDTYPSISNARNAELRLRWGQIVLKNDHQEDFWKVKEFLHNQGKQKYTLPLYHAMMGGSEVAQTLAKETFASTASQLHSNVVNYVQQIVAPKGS
smiles,measurement,setting,value
"COP(=O)(OC)C1CC(c2ccccc2)=NO1 (single isomer, unassigned) [Example 60a, Dimethyl (+)- and (-)-3-phenyl-2-isoxazolin-5-ylphosphonate]",Relative stimulation of macrophage activity: Chemiluminescence,peritoneal macrophages [1],51%
same,Relative stimulation of macrophage activity: Exocytosis,peritoneal macrophages [2],88%
"COP(=O)(OC)C1CC(c2ccccc2)=NO1 (single isomer, unassigned) [Example 60b, Dimethyl (+)- and (-)-3-phenyl-2-isoxazolin-5-ylphosphonate]",Relative stimulation of macrophage activity: Chemiluminescence,peritoneal macrophages [1],24%
same,Relative stimulation of macrophage activity: Exocytosis,peritoneal macrophages [2],63%
"O=P(O)(O)C1CC(c2ccccc2)=NO1 (single isomer, unassigned; (+)) [Example 61, (+)-3-Phenyl-2-isoxazolin-5-ylphosphonic acid]",Active Arthus reaction % change,active Arthus reaction; 4 h after ovalbumin challenge,+52%
same,Leucine aminopeptidase IC50,leucine aminopeptidase,26 μug/ml
same,Relative stimulation of the DTH reaction,[3]; 40 mg/kg,108%
"O=P(O)(O)C1CC(c2ccccc2)=NO1 (single isomer, unassigned; (-)) [Example 62, (-)-3-Phenyl-2-isoxazolin-5-ylphosphonic acid]",Active Arthus reaction % change,active Arthus reaction; 4 h after ovalbumin challenge,+16%
same,Leucine aminopeptidase IC50,leucine aminopeptidase,130 μug/ml
same,Relative stimulation of the DTH reaction,[3]; 40 mg/kg,83%
"COP(C)(=O)C1CC(c2ccccc2)=NO1 (centres unmarked) [Example 13, Methyl 3-phenyl-2-isoxazolin-5-yl(P-methyl)phosphinate]",change in vivo at 50 mg/kg,"active Arthus reaction; Rattus norvegicus, 4 h after ovalbumin challenge",-13%
same,LD50 at 168 h,Acute toxicity; iv,> 200 mg/kg
same,IC50,aminopeptidase B,418 µM
O=P(O)(O)C1CC(c2ccccc2)=NO1 (centres unmarked) [Example 35],change in vivo at 35 mg/kg,"active Arthus reaction; Rattus norvegicus, po, 4 h, oral dose 35 mg/kg, 4 h after ovalbumin challenge, read-out: Active Arthus reaction % change",-16%
same,LD50 at 168 h,Acute toxicity; iv,> 200 mg/kg
same,Leucine aminopeptidase IC50,leucine aminopeptidase,57 μug/ml
same,Relative stimulation of the DTH reaction,[3]; 40 mg/kg,98%
O=P(O)(O)C1CC(c2ccccc2)=NO1 (centres unmarked) [Example 36],Leucine aminopeptidase IC50,leucine aminopeptidase,56 μug/ml
same,Relative stimulation of the DTH reaction,[3]; 40 mg/kg,102%
O=P(O)(O)C1CC(c2ccccc2)=NO1 (centres unmarked) [Example 37],Leucine aminopeptidase IC50,leucine aminopeptidase,52 μug/ml
same,Relative stimulation of the DTH reaction,[3]; 40 mg/kg,77%
COc1ccc(C2=NOC(P(=O)(O)O)C2)cc1 (centres unmarked) [Example 48],change in vivo at 100 mg/kg,"active Arthus reaction; Rattus norvegicus, po, 4 h, oral dose 100 mg/kg, 4 h after ovalbumin challenge, read-out: Active Arthus reaction % change",10%
same,LD50 at 168 h,Acute toxicity; ip,300 to 600 mg/kg
same,Leucine aminopeptidase IC50,leucine aminopeptidase,100 μug/ml
O=C(C1=NOC(P(=O)(O)O)C1)c1ccccc1 (centres unmarked) [Example 53],Leucine aminopeptidase IC50,leucine aminopeptidase,65 μug/ml
same,Relative stimulation of the DTH reaction,[3],68%
COc1ccc(-c2cc(P(=O)(O)O)on2)cc1 [Example 54],change in vivo at 40 mg/kg,"active Arthus reaction; Rattus norvegicus, po, 4 h, oral dose 40 mg/kg, 4 h after ovalbumin challenge",-57%
same,LD50 at 168 h,Acute toxicity; iv,> 200 mg/kg
same,% inhibition Proteinuria,cGvH reaction; oral dose 15 mg/kg/day,27%
same,% inhibition cGvH index,cGvH reaction; oral dose 15 mg/kg/day,16%
same,% inhibition Proteinuria,cGvH reaction; oral dose 50 mg/kg/day,64%
same,% inhibition cGvH index,cGvH reaction; oral dose 50 mg/kg/day,18%
"CP(=O)(O)C1CC(c2ccccc2)=NO1 (centres unmarked) [Example 63, 3-Phenyl-2-isoxazolin-5-yl(P-methyl)phosphinic acid]",change in vivo at 50 mg/kg,active Arthus reaction; [4],-48%
same,LD50 at 168 h,Acute toxicity; ip,300 to 600 mg/kg
same,% inhibition Proteinuria,cGvH reaction; oral dose 15 mg/kg/day,76%
same,% inhibition cGvH index,cGvH reaction; oral dose 15 mg/kg/day,54%
same,% inhibition Proteinuria,cGvH reaction; oral dose 30 mg/kg/day,61%
same,% inhibition cGvH index,cGvH reaction; oral dose 30 mg/kg/day,48%
"O=[N+]([O-])c1ccc(C2=NOC(P(=O)(O)O)C2)cc1 (centres unmarked) [Example 69, 3-(4-Nitrophenyl)-2-isoxazolin-5-ylphosphonic acid]",change in vivo at 50 mg/kg,active Arthus reaction; [4],-20%
same,LD50 at 168 h,Acute toxicity; iv,> 100 mg/kg
same,Leucine aminopeptidase IC50,leucine aminopeptidase,27 μug/ml
"Br.CN(C)c1ccc(C2=NOC(P(=O)(O)O)C2)cc1 (centres unmarked) [Example 71, 3-(4-Dimethylaminophenyl)-2-isoxazolin-5-ylphosphonic acid hydrobromide]",change in vivo at 70 mg/kg,active Arthus reaction; [5],-10%
same,LD50 at 168 h,Acute toxicity; ip,150 to 300 mg/kg
same,Leucine aminopeptidase IC50,leucine aminopeptidase,37 μug/ml
"O=P(O)(O)C1CC(c2cccs2)=NO1 (centres unmarked) [Example 75, 3-(2-Thienyl)-2-isoxazolin-5-ylphosphonic acid]",change in vivo at 35 mg/kg,active Arthus reaction; [5],-26%
same,LD50 at 168 h,Acute toxicity; iv,> 100 mg/kg
same,Leucine aminopeptidase IC50,leucine aminopeptidase,79 μug/ml
